The target of experiment [1] is T1, CP1B (Zea mays, UniProt K7TP58).
T1 construct: gene LOC100283284
Kind of experiment: fluorogenic substrate cleavage assay, apoplastic fluid of overexpressing N. benthamiana. The format is cell-based.

For experiment [2], the target named is T2, CP1C (Zea mays, UniProt B4FS90).
T2 sequence (B4FS90 150-389 limits assumed): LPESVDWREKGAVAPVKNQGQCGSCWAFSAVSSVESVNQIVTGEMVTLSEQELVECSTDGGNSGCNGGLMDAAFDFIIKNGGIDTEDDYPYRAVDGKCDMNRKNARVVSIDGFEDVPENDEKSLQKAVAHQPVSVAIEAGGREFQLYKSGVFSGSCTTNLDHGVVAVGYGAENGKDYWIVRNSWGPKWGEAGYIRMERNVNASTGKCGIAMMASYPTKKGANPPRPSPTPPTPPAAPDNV
Described as above. The experiment is classed as cell-based. Particulars: 10 uM Z-LR-AMC, pH 6, 0.5 mM DTT; covalent irreversible active-site inhibitor.

SMILES strings stand for the structures.

T1 sequence (K7TP58 135-372 limits assumed): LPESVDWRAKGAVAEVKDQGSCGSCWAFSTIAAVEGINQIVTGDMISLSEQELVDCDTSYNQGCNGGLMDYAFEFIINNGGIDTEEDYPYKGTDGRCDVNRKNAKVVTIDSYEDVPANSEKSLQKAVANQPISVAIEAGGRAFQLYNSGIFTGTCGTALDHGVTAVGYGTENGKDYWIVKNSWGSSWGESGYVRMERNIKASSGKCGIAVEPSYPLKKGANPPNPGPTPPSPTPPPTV

For the compound `CC(C)C[C@H](NC(=O)[C@H]1O[C@@H]1C(=O)O)C(=O)NCCCCN=C(N)N` [E-64], the IC50 – broadly, the concentration that gives 50% inhibition – in experiment [1] came to 10 ± 0.9 nM; in experiment [2] it was 3.2 ± 0.2 nM.

The record behind these values is paper PMC6503450, “Proteases Underground: Analysis of the Maize Root Apoplast Identifies Organ Specific Papain-Like Cysteine Protease Activity” (Frontiers in Plant Science, 2019).
